Holding throughout (details): Compound concentration 1000.0 nM
Test [1] relates to Receptor-type tyrosine-protein kinase FLT3 (Homo sapiens), P36888 [D835Y].
Test [2] has as its target Serine/threonine-protein kinase TNNI3K (Homo sapiens) (UniProt Q59H18).
The target of test [3] is T1, Mitogen-activated protein kinase kinase kinase kinase 3 (Homo sapiens) (UniProt Q8IVH8).
T1 sequence (whole entry): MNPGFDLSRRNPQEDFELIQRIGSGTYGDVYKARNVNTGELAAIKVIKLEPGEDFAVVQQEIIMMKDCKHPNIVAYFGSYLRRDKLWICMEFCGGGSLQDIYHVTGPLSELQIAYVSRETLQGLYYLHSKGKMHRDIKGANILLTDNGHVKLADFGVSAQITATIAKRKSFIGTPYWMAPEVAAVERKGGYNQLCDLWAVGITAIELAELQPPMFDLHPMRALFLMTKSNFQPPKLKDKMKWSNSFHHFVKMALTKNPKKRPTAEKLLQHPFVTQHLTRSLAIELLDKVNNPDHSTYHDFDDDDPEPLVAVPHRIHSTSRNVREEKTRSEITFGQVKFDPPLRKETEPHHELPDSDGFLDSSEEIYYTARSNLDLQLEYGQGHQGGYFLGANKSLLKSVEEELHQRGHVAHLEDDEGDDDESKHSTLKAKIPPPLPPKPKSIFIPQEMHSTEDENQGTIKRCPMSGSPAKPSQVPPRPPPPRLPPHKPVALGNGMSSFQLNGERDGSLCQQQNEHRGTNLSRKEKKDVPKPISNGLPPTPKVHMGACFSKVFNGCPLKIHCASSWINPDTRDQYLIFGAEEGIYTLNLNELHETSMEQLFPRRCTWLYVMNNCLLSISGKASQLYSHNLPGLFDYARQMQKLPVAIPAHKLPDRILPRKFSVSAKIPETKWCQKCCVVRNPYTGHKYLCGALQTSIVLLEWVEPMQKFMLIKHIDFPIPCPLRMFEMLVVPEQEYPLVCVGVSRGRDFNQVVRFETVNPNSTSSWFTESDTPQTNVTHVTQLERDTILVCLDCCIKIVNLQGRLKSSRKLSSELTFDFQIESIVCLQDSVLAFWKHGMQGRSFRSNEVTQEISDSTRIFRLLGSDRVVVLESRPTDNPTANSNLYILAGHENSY

Test [4] concerns the target Transient receptor potential cation channel subfamily M member 6 (Homo sapiens) (UniProt Q9BX84).
Test [5] concerns the target Cyclin-dependent kinase 4 (Homo sapiens) (UniProt P11802).
Test [6] concerns the target Serine/threonine-protein kinase Chk2 (Homo sapiens) (UniProt O96017).
Test [7] has as its target Homeodomain-interacting protein kinase 1 (Homo sapiens) (UniProt Q86Z02).
For test [8], the system named is Mast/stem cell growth factor receptor Kit (Homo sapiens), P10721 [D816H].
Sequence of Mast/stem cell growth factor receptor Kit (Homo sapiens), P10721 [D816H] (P10721 whole entry D816H): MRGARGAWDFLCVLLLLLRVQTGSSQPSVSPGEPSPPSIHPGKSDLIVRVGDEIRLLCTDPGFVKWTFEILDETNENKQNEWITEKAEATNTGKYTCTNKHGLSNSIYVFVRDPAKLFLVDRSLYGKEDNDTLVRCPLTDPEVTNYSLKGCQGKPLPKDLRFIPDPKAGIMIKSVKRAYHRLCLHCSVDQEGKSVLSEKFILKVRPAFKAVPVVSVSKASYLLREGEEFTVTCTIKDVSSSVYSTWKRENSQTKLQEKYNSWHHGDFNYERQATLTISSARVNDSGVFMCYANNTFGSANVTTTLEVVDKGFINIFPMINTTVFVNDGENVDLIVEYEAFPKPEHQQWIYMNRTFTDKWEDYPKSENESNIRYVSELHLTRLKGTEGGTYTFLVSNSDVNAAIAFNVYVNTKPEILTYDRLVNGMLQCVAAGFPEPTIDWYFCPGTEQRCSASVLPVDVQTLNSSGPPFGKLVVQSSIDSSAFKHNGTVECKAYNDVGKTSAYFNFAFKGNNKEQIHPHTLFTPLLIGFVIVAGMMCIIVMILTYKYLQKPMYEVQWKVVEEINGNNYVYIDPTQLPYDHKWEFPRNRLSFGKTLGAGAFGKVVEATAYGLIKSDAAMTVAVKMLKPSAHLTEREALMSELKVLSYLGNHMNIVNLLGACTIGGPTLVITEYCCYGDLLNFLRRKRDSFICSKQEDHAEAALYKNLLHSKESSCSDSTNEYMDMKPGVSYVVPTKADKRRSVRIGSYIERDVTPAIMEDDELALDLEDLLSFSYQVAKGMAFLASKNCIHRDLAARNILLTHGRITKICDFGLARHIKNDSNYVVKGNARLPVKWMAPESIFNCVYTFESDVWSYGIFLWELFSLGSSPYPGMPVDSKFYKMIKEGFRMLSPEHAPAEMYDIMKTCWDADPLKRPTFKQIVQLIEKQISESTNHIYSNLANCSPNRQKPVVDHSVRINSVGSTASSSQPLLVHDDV
Test [9] concerns the target T2, Serine/threonine-protein kinase DCLK3 (Homo sapiens) (UniProt Q9C098).
T2 sequence (whole entry): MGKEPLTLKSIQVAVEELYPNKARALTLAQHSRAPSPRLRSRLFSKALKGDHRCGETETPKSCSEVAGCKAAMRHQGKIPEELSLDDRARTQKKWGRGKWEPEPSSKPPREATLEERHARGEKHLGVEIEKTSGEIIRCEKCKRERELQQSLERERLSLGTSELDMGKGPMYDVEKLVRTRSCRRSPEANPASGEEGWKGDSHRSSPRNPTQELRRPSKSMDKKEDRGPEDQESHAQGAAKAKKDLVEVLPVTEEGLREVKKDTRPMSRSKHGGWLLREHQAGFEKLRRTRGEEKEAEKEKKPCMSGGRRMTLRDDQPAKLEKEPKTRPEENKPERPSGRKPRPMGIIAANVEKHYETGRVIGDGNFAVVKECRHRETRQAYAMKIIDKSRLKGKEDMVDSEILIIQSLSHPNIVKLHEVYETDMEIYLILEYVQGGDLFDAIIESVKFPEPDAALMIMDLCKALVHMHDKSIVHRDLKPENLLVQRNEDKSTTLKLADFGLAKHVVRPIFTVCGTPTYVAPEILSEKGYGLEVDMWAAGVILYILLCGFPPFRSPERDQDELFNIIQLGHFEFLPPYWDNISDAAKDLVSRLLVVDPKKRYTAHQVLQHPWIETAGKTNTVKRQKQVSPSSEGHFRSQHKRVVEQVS

The target of test [10] is T3, Serine/threonine-protein kinase ULK1 (Homo sapiens) (UniProt O75385).
T3 sequence (whole entry): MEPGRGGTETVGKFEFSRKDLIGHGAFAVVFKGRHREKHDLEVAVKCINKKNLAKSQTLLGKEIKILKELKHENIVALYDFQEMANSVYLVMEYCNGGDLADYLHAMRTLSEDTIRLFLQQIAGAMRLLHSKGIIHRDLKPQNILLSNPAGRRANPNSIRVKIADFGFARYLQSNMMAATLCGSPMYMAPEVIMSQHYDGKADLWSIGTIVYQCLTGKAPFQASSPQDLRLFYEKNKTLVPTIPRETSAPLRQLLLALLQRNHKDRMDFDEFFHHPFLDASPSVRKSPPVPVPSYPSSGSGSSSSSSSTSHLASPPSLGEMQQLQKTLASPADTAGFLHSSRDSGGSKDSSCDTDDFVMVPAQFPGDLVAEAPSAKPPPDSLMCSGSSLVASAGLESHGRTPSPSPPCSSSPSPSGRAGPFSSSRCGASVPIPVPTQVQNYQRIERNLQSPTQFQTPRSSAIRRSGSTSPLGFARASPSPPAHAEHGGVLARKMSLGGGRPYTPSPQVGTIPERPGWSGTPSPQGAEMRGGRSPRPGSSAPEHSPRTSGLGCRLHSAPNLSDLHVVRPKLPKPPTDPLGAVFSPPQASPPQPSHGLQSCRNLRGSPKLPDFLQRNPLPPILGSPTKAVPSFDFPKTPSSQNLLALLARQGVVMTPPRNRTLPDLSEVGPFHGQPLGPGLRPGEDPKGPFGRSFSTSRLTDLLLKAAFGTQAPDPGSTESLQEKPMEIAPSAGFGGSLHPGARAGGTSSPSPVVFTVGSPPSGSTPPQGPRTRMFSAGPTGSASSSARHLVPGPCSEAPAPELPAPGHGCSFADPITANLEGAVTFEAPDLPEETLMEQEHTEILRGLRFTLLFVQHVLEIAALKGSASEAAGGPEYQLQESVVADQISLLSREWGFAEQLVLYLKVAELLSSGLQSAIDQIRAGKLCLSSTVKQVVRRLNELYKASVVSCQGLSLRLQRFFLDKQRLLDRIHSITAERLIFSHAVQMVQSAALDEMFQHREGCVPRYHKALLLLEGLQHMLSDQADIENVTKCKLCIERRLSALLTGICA

Sequence of Homeodomain-interacting protein kinase 1 (Homo sapiens) (Q86Z02 whole entry, looked up): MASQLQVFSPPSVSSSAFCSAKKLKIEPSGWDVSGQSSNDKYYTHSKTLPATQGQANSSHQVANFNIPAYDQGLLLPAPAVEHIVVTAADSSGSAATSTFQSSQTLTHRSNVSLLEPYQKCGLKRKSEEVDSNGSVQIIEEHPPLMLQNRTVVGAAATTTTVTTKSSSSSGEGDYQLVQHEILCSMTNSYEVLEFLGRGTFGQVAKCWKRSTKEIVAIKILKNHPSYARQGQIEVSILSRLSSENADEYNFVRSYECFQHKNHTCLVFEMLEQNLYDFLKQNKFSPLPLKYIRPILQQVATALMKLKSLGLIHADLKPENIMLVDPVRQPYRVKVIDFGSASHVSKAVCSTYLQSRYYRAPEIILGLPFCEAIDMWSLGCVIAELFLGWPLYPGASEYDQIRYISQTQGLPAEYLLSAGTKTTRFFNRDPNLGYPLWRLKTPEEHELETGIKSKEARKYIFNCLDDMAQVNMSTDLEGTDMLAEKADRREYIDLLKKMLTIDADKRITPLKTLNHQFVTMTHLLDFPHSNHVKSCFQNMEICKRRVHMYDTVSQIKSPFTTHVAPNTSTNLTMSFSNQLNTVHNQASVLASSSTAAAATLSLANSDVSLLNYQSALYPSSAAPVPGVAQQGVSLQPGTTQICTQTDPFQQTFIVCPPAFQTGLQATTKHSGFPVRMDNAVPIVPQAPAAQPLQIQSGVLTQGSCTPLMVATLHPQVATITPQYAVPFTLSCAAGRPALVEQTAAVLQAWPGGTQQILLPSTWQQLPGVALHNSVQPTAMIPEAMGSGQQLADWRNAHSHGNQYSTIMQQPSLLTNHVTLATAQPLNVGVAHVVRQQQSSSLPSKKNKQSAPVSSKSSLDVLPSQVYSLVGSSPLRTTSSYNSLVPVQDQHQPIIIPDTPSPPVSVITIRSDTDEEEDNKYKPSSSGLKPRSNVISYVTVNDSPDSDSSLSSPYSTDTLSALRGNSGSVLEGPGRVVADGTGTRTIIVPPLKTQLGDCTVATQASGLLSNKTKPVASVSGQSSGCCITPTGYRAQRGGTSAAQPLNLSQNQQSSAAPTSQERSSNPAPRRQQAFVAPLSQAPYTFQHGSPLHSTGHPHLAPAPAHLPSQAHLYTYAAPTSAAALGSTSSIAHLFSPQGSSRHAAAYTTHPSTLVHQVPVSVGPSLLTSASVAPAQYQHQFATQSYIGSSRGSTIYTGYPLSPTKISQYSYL
Sequence of Serine/threonine-protein kinase TNNI3K (Homo sapiens) (Q59H18 whole entry): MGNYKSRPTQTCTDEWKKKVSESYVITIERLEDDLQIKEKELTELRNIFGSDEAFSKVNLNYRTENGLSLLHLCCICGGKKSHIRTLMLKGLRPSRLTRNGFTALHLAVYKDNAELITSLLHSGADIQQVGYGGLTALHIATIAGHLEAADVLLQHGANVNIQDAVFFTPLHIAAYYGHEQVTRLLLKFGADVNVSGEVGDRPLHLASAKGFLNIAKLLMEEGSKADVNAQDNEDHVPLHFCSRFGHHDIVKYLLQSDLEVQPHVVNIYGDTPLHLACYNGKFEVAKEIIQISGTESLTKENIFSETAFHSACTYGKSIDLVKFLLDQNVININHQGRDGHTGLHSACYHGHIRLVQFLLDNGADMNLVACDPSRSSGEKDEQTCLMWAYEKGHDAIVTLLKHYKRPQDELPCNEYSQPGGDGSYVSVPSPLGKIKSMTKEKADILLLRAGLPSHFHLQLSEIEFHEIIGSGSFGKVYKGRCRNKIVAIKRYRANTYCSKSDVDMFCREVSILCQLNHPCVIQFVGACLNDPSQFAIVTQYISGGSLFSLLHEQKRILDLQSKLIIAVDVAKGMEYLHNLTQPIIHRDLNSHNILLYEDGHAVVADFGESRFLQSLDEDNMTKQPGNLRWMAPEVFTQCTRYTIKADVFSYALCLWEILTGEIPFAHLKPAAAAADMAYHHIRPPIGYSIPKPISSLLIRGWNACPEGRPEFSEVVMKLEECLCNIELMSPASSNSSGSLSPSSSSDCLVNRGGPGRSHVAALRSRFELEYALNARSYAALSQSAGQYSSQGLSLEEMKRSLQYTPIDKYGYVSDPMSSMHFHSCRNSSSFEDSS
Sequence of Transient receptor potential cation channel subfamily M member 6 (Homo sapiens) (Q9BX84 whole entry): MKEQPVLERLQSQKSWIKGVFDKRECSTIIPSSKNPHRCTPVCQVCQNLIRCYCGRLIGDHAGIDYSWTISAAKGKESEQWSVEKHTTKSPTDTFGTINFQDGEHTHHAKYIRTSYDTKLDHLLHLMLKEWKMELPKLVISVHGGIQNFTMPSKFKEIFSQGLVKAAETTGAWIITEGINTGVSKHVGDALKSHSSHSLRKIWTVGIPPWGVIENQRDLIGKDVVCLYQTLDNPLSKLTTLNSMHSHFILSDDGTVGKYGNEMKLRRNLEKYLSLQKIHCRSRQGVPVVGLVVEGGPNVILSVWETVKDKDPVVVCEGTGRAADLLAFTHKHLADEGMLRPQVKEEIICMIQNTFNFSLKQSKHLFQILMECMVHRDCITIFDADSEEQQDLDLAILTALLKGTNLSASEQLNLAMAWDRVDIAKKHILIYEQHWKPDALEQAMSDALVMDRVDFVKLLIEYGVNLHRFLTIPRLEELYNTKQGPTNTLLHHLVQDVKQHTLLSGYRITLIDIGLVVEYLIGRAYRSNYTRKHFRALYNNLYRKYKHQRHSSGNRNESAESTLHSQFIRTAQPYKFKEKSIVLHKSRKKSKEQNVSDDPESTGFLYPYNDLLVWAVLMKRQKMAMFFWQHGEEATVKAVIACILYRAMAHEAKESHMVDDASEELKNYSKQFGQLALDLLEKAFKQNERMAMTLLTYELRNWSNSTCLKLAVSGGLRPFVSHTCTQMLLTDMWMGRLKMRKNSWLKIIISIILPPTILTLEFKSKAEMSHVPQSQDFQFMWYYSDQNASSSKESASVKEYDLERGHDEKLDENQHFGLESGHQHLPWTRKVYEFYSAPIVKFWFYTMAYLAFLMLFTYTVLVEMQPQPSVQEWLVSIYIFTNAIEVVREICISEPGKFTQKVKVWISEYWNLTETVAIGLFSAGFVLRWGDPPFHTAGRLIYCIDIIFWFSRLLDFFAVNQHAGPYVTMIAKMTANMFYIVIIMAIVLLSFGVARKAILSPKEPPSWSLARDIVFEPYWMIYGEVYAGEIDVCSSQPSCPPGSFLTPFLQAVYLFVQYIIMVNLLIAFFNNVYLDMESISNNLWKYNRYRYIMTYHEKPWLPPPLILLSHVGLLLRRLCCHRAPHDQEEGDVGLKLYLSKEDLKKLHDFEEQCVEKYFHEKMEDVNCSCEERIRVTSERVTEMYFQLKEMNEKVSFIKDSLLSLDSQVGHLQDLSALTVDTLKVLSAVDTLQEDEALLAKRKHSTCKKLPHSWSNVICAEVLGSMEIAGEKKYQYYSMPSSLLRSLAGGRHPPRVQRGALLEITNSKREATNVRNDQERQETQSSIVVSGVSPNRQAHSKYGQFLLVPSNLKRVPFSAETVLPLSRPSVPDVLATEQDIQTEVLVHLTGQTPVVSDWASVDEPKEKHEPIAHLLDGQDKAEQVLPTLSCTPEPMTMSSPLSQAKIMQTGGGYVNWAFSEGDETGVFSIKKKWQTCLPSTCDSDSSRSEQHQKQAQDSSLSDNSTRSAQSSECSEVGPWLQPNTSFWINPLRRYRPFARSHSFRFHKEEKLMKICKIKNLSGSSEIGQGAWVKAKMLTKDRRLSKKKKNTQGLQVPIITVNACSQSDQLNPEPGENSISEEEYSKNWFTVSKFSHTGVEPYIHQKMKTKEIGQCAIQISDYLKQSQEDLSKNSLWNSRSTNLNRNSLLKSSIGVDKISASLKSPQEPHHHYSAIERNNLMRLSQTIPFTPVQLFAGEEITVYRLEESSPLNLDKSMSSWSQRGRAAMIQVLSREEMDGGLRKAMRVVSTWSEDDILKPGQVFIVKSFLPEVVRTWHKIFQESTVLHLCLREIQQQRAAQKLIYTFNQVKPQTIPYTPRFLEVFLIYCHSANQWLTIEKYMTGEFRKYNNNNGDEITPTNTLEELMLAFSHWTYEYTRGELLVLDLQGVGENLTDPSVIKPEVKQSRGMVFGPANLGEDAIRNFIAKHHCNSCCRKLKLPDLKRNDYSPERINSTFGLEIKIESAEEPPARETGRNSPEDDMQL

In the case of `CC1=C(C#N)C(c2ccc3c(c2)c(NC(=O)c2ccccc2C)nn3C)C(C#N)=C(C)N1` [BAY-974], the residual activity in [1] is 82%; in test [2], 96%; in [3], 80%; in test [4], 91%; in [5], 100%; in test [6] it was 74%. In addition, the residual activity in test [7] is 71%; in test [8] it was 64%; in test [9], 89%; in [10], 86%.
As to `CCc1ccccc1C(=O)Nc1n[nH]c2c(C)c(F)c(C3C(C#N)=C(C)N(C)C(C)=C3C#N)cc12` [BAY-3827], the residual activity in test [1] was 2.5%; in test [2], 87%; in [3], 100%; in [4] it was 100%; in [5], 100%; in [6], 70%. Besides, the residual activity in test [7] was 99%; in test [8], 100%; in test [9], 82%; in [10], 29%.
